# According to patent publication US12582657B2, “Combination therapy including a KRAS G12C inhibitor and one or more additional pharmaceutically active agents for the treatment of cancers” (Amgen Inc., priority 2018, dated 2026):
# Where two headings read alike, the source gives them in different places.
# Key:
# [1] = system: ERK1/2 phosphorylation in NCI-H358 tumors; experiment: Tumor pharmacodynamic assay (p-ERK, MSD immunoassay); conditions: Mus musculus, NCI-H358, po, 2 h, read-out: inhibition of p-ERK, reduction compared to control
# [2] = system: MAPK, EGFR, AKT, S6, caspase-3 signaling in NCI-H358 and MIA PaCa-2; experiment: Western blots of cellular signaling nodes; format: cell-based, human; conditions: 0.1 μM; both lines
# Text: This shifted species accumulated with increasing time and dose and was consistent with downstream inhibition of the MAPK pathway (i.e. p-MEK1/2 and p-ERK1/2) in both cell lines (FIGS. 41A and 41B).
# HCC-827 cells = experiment: Cell viability assay (CellTiter-Glo, adherent); format: cell-based; conditions: Homo sapiens, HCC827, HCC-827, lung, KRAS WT EGFR p.E746_A750del, 72-hour treatment
# Procedure: (§1) For adherent viability assays, 0.5-1.0E+03 cells were seeded per well in 384-well plates (or 2.5-4.0E+04 cells per well in 96-well plates) and incubated at 37° C., 5% CO2, o/n. The following day, serially-diluted compound or DMSO was added to the cells, and the plates were incubated at 37° C., 5% CO2 for 72 hours. Cell viability was measured using a CellTiter-Glo® Luminescent Cell Viability Assay kit (Promega) according to the manufacturer's protocol. The luminescence signal of treated samples was normalized to DMSO control.
# AsPC-1 cells = experiment: Cell viability assay (CellTiter-Glo, adherent); format: cell-based; conditions: Homo sapiens, ASPC1, AsPC-1, pancreas, KRAS p.G12D homozygous, 72-hour treatment
# Procedure: as §1
# KM12 cells = experiment: Cell viability assay (CellTiter-Glo, adherent); format: cell-based; conditions: Homo sapiens, KM12, colon, KRAS WT TPM3-NTRK fusion, 72-hour treatment
# Procedure: as §1
# LS 174T cells = experiment: Cell viability assay (CellTiter-Glo, adherent); format: cell-based; conditions: Homo sapiens, LS174T, colon, KRAS p.G12D heterozygous, 72-hour treatment
# Procedure: as §1
# A-427 cells = experiment: Cell viability assay (CellTiter-Glo, adherent); format: cell-based; conditions: Homo sapiens, A-427, lung, KRAS p.G12D heterozygous, 72-hour treatment
# Procedure: as §1
# NCI-H1373 cells = experiment: Cell viability assay (CellTiter-Glo, adherent); format: cell-based; conditions: Homo sapiens, NCI-H1373, lung, KRAS p.G12C homozygous, 72-hour treatment
# Procedure: as §1
# NCI-H23 cells = experiment: Cell viability assay (CellTiter-Glo, adherent); format: cell-based; conditions: Homo sapiens, NCI-H23, lung, KRAS p.G12C heterozygous, 72-hour treatment
# Procedure: as §1
# NCI-H1355 cells = experiment: Cell viability assay (CellTiter-Glo, adherent); format: cell-based; conditions: Homo sapiens, NCI-H1355, lung, KRAS p.G13C heterozygous, 72-hour treatment
# Procedure: as §1
# NCI-H2030 cells = experiment: Cell viability assay (CellTiter-Glo, adherent); format: cell-based; conditions: Homo sapiens, NCI-H2030, lung, KRAS p.G12C homozygous, 72-hour treatment
# Procedure: as §1
# SW480 cells = experiment: Cell viability assay (CellTiter-Glo, adherent); format: cell-based; conditions: Homo sapiens, SW480, colon, KRAS p.G12V homozygous, 72-hour treatment
# Procedure: as §1
# COLO-205 cells = experiment: Cell viability assay (CellTiter-Glo, adherent); format: cell-based; conditions: Homo sapiens, COLO-205, colon, KRAS WT BRAF p.V600E, 72-hour treatment
# Procedure: as §1
# UM-UC-3 cells = experiment: Cell viability assay (CellTiter-Glo, adherent); format: cell-based; conditions: Homo sapiens, UMUC3, UM-UC-3, bladder, KRAS p.G12C homozygous, 72-hour treatment
# Procedure: as §1
# NCI-H358 cells = experiment: Cell viability assay (CellTiter-Glo, adherent); format: cell-based; conditions: Homo sapiens, 72-hour treatment
# Procedure: as §1
# SW1573 cells = experiment: Cell viability assay (CellTiter-Glo, adherent); format: cell-based; conditions: Homo sapiens, SW1573, lung, KRAS p.G12C homozygous, 72-hour treatment
# Procedure: as §1
# A549 cells = experiment: Cell viability assay (CellTiter-Glo, adherent); format: cell-based; conditions: Homo sapiens, A549, lung, KRAS p.G12S homozygous, 72-hour treatment
# Procedure: as §1
# Calu-1 cells = experiment: Cell viability assay (CellTiter-Glo, adherent); format: cell-based; conditions: Homo sapiens, Calu-1, lung, KRAS p.G12C heterozygous, 72-hour treatment
# Procedure: as §1
# NCI-H1322 cells = experiment: Cell viability assay (CellTiter-Glo, adherent); format: cell-based; conditions: Homo sapiens, 72 h, read-out: Cell Viability IC50
# Procedure: as §1
# SW837 cells = experiment: Cell viability assay (CellTiter-Glo, adherent); format: cell-based; conditions: Homo sapiens, SW837, colon, KRAS p.G12C heterozygous, 72-hour treatment
# Procedure: as §1
# NCI-H2122 cells = experiment: Cell viability assay (CellTiter-Glo, adherent); format: cell-based; conditions: Homo sapiens, NCI-H2122, lung, KRAS p.G12C homozygous, 72-hour treatment
# Procedure: as §1
# NCI-H1792 cells = experiment: Cell viability assay (CellTiter-Glo, adherent); format: cell-based; conditions: Homo sapiens, NCI-H1792, lung, KRAS p.G12C heterozygous, 72-hour treatment
# Procedure: as §1
# SW1463 cells = experiment: Cell viability assay (CellTiter-Glo, adherent); format: cell-based; conditions: Homo sapiens, SW1463, colon, KRAS p.G12C homozygous, 72-hour treatment
# Procedure: as §1
# [3] = system: ERK1/2 phosphorylation in MIA PaCa-2 T2 tumors; experiment: Tumor pharmacodynamic assay (p-ERK, MSD immunoassay); format: in vivo, mouse
# [4] = system: ERK1/2 phosphorylation in NCI-H1792 cells; experiment: Basal ERK1/2 phosphorylation assay (MSD); format: cell-based; conditions: Homo sapiens; NCI-H1792, lung, KRAS p.G12C heterozygous; 2-hour treatment
# Procedure: For cellular assays, 2.5E+04 cells were seeded per well in 96-well plates and incubated at 37° C., 5% CO2, o/n. The following day, 3-fold serially-diluted compound or DMSO was added to the cells, and the plates were incubated at 37° C., 5% CO2 for 2 hours. […] Signal intensity corresponded with phospho-ERK1/2 levels and was normalized DMSO control.
smiles,measurement,setting,value
"C=CC(=O)N1CCN(c2nc(=O)n(-c3c(C)ccnc3C(C)C)c3nc(-c4c(O)cccc4F)c(F)cc23)[C@@H](C)C1 (atropisomer, axis not shown) [AMG 510, 6-fluoro-7-(2-fluoro-6-hydroxyphenyl)-1-(4-methyl-2-(2-propanyl)-3-pyridinyl)-4-((2S)-2-methyl-4-(2-propenoyl)-1-piperazinyl)pyrido[2,3-d]pyrimidin-2(1H)-one]",inhibition at 100 mg/kg,[1],83%
same,duration of effects on MAPK and EGFR,[2],> 24 h
same,onset of effects on MAPK and EGFR,[2],< 2 h
same,time at which p-S6 and caspase-cleavage effects emerged,[2],8 to 16 h
same,IC50,HCC-827 cells,> 7500 nM
same,IC50,AsPC-1 cells,> 7500 nM
same,IC50,KM12 cells,> 7500 nM
same,IC50,LS 174T cells,> 7500 nM
same,IC50,A-427 cells,> 7500 nM
same,IC50,NCI-H1373 cells,20 ± 6 nM
same,IC50,NCI-H23 cells,6 ± 1 nM
same,IC50,NCI-H1355 cells,> 7500 nM
same,IC50,NCI-H2030 cells,6 ± 3 nM
same,IC50,SW480 cells,> 7500 nM
same,IC50,COLO-205 cells,> 7500 nM
same,IC50,UM-UC-3 cells,5 ± 1 nM
same,IC50,"NCI-H358 cells; first of two lines (FIG. 40G: NCI-H358), read-out: cellular viability IC50",~6 nM
same,IC50,"NCI-H358 cells; NCI-H358, lung, KRAS p.G12C heterozygous, adherent, read-out: Cell Viability IC50",4 ± 1 nM
same,IC50,SW1573 cells,> 7500 nM
same,IC50,A549 cells,> 7500 nM
same,IC50,Calu-1 cells,4 ± 1 nM
same,IC50,NCI-H1322 cells,> 7500 nM
same,IC50,SW837 cells,9 ± 6 nM
same,IC50,NCI-H2122 cells,32 ± 5 nM
same,IC50,NCI-H1792 cells,11 ± 8 nM
same,IC50,SW1463 cells,15 ± 7 nM
same,inhibition at 100 mg/kg,"[3]; Mus musculus, MIA PaCa-2 T2, 100 mg/kg oral single dose, 2 hours post-treatment, read-out: inhibition of p-ERK, reduction compared to control",69%
same,time of maximal inhibition of p-ERK post-treatment,[3]; single dose 10 mg/kg,2 to 4 h
same,IC50,[4],45 ± 23 nM
